Laboratory results from patent US10004770B2, “Production and use of bacterial histamine” (BioGaia AB, priority 2011, dated 2018).
“Also recorded” adds a separate entry of the source.

What was measured:
[1] = system: TNF production from TLR2-activated THP-1 cells; test: TNF inhibition bioassay and TNF ELISA; type: cell-based, human; settings: for block of TNF-inhibition by histamine: antagonist added before histamine 10^-5 M, ranitidine, cimetidine 10^-4-10^-6 M, indomethacin 10^-5-10^-6 M; for TNF production (TNF inhibition): THP-1 cells stimulated with 100 ng/mL Pam3Cys-SKKKK, 3.5 h, samples 5% v/v, histamine 10^-5 M, 6475 grown in glucose media (LDMIIIG)
Experimental: In vitro experiments were performed with THP-1 cells (human monocytoid cell line, ATCC, Manassas, Va.) maintained in RPMI (ATCC) and heat-inactivated fetal bovine serum (Invitrogen, Carlsbad, Calif.) at 37° C., 5% CO2. MEK1/2, phospho-MEK1/2, ERK1/2, and phospho-ERK1/2 antibodies and MEK inhibitor U0126 were received from Cell Signaling Technology (Danvers, Mass.), and the β-Actin antibody was received from Abcam (Cambridge, Mass.). All other reagents were received from Sigma (St. Louis, Mo.) unless otherwise stated.
Bacterial supernatants (10 mL) from a 24 h LDMIII culture were filter-sterilized using PVDF membrane filters (0.22 μm pore size, Millipore) and size fractionated as described above. One milliliter of the <3 kDa filtrate was speed vacuum dried and resuspended in RPMI media. These processed supernatant samples are termed conditioned media. All supernatants were normalized by volume to an OD600=1.0. Lyophilized fractions from the HILIC-HPLC separation were resuspended in 400 μL 10 mg/mL ammonium bicarbonate, speed vacuum dried, and resuspended in 400 μL RPMI media. Conditioned media and cell pellet wash fractions were tested for their ability to modulate TNF production in monocytoid cells. In brief, THP-1 cells (approximately 5×10^4 cells) were stimulated to produce TNF by the addition of 100 ng/mL Pam3Cys-SKKKK×3 HCl (EMC Microcollections, Tuebingen, Germany) as previously described. Inhibitors—H2 receptor antagonists, ranitidine and cimetidine (10^−4-10^−6 M), […], indomethacin (10^−5-10^−6 M), MEK inhibitor, U0126 (10 μM), and PKA inhibitor, H89 (N-[2-(p-bromocinnamylamino)ethyl]-5-isoquinolinesulfonamide dihydrochloride) (10^−5 M)—were added to the THP-1 cells followed by L. reuteri conditioned media or cell pellet wash fractions (5% v/v), histamine (10^−5 M), or dibutyryl cAMP (10^−3-10^−7 M). Plates were incubated at 37° C. and 5% CO2 for 3.5 h. THP-1 cells were pelleted (3000× g, 5 min, 4° C.), and quantitative ELISAs were used to determine TNF quantities in THP-1 cell supernatants according to the manufacturer's instructions (R&D Systems, Minneapolis, Minn.).

ERK1/2 = ERK1/2 activation by Western blot; type: cell-based, human; settings: activated THP-1 cells, compared to media control
Experimental: (§1) THP-1 cells were lysed in ice-cold lysis buffer consisting of 50 mM Tris, pH 7.4, 250 mM NaCl, 5 mM EDTA, 50 mM NaF, 1 mM Na3VO4, 1% v/v Nonidet P40, 0.2% v/v NaN3, and protease and phosphatase inhibitors. Lysates were incubated on ice for 30 min, vortexed every 10 min, and cleared by centrifugation at 13,000×g for 10 min at 4° C. Protein concentrations were measured using the Quant-iT™ Protein Assay kit (Invitrogen) and a Qubit fluorometer according to the manufacturer's instructions. Equal amounts of proteins were loaded onto electrophoresis gels.
(§2) Analysis of ERK1/2 activation was performed using specific phospho-ERK1/2 antibodies. Cell extracts were loaded on a 10% SDS-polyacrylamide gel and transferred to polyvinylidene difluoride membranes (Bio-Rad, Hercules, Calif.). Membranes were blocked overnight at 4° C. in blocking buffer (Li-Cor Biosciences, Lincoln, Nebr.). After several washes, membranes were probed with ERK1/2, phospho-ERK1/2 or β-Actin specific antibodies diluted in blocking buffer (Li-Cor) for 1 h at room temperature. After washes, membranes were incubated with the appropriate horseradish peroxidase-conjugated secondary antibody for 1 h at room temperature, and blots were then developed using a chemiluminescent detection. Analysis of MEK1/2 activation was performed as described above except primary antibody incubation was overnight at 4° C.

MEK1/2 = MEK1/2 activation by Western blot; type: cell-based, human; settings: activated THP-1 cells, compared to media control
Experimental: as §1, §2

H2 receptor = biological target: T1, H2 receptor (Mus musculus, UniProt P97292); settings: endotoxin shock (LPS challenge) and hepatitis (LPS plus galactosamine challenge); cited from earlier work
T1 construct: host or cells: living mice (endogenous receptor)

[2] = system: intracellular cAMP in THP-1 cells (H2 receptor signaling); test: Intracellular cAMP in TLR2-stimulated THP-1 cells; type: cell-based, human; settings: THP-1 cells stimulated with TLR2 agonist
Experimental: The H2 receptor is a G protein linked receptor that can activate adenylate cyclase and increase intracellular cAMP. TNF can be inhibited at the level of transcription by cAMP and cAMP analogs. THP-1 cells were stimulated with a TLR2 agonist in the presence of a medium control, 6475 supernatant or histamine with or without an H2 receptor antagonist and intracellular levels of cAMP were measured. […] A synthetic analog of cAMP, dibutyryl cAMP (dcAMP), was added to TLR2-stimulated THP-1 cells and the effect on TNF production was monitored.

TNFR1 [3] = settings: injection into human skin engrafted on immunodeficient mice; cited from earlier work
TNFR1 [4] = settings: cultured human endothelial cells; cited from earlier work
[5] = system: LPS-stimulated human monocytes and macrophages; settings: cited from earlier work
[6] = system: peripheral blood mononuclear cells; settings: cited from earlier work
LPS-induced liver injury = settings: mouse; cited from earlier work
patients with IBS = settings: cited from earlier work

T1 sequence (P97292 whole entry): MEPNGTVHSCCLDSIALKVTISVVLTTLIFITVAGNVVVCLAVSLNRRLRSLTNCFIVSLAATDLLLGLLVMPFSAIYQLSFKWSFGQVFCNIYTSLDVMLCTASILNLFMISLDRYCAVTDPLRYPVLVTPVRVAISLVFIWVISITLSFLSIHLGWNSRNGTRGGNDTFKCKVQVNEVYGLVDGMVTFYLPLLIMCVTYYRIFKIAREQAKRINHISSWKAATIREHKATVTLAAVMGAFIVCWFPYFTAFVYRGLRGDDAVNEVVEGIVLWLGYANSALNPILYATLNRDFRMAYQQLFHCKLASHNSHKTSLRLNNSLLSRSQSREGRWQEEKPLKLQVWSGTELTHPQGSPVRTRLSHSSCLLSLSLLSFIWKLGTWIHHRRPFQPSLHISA

## Cl.Cl.O=S(=O)(NCCNCC=Cc1ccc(Br)cc1)c1cccc2cnccc12 [H89, N-[2-(p-bromocinnamylamino)ethyl]-5-isoquinolinesulfonamide dihydrochloride]
[1]; H89 10^-5 M in presence of 6475 supernatant, fraction B3, histamine or dcAMP
  block of TNF inhibition by PKA inhibitor: partially blocked TNF inhibition

## N#CC(=C(/N)Sc1ccccc1N)/C(C#N)=C(\N)Sc1ccccc1N [U0126]
[1]; U0126 treatment for 30 min prior to TLR2 agonist stimulation
  TNF production: sufficient to prevent TNF production
ERK1/2
  phosphorylation (activation) of ERK1/2: blocks phosphorylation; also recorded: suppressed activation of ERK1/2
MEK1/2
  phosphorylation (activation) of MEK1/2: blocks phosphorylation; also recorded: suppressed activation of MEK1/2

## CN/C(=N/CCSCc1nc[nH]c1C)NC#N [cimetidine]
[1]
  block of TNF-inhibition by histamine: could block TNF-inhibition by histamine in a concentration dependent manner

## CCCC(=O)Nc1ncnc2c1ncn2[C@@H]1O[C@@H]2COP(=O)(O)O[C@H]2[C@H]1OC(=O)CCC [dcAMP, dibutyryl cAMP]
[1]; dcAMP 10^-5-10^-3 M added to TLR2-stimulated THP-1 cells
  TNF production: sufficient to inhibit TNF production

## CN(C)CCCSC(=N)N [dimaprit]
H2 receptor
  plasma TNF levels: reduced plasma TNF levels

## NCCc1c[nH]cn1 [histamine]
[2]
  intracellular cAMP: increase in cAMP; also recorded: increased intracellular cAMP
TNFR1 [3]
  TNFR1 shedding and TNF-mediated induction of endothelial adhesion molecules: caused shedding of TNFR1 and diminished TNF-mediated induction of endothelial adhesion molecules
TNFR1 [4]
  TNFR1 surface level, shedding and mobilization: transient loss of surface TNFR1, increased TNFR1 shedding, and mobilization of TNFR1 molecules from the Golgi
[1]
  TNF production (TNF inhibition): concentration dependent; also recorded: significantly inhibited TNF production
[1]; listed as Histamine
  TNF production (TNF inhibition): significantly inhibit TNF production
[5]; LPS-stimulated human monocytes and macrophages
  production of pro-inflammatory cytokines IL-1, IL-12 and TNF: can inhibit production
[5]; via the H2 receptor
  production of anti-inflammatory cytokine IL-10: can stimulate production
[6]
  LPS-induced synthesis of TNF-α: suppressed
LPS-induced liver injury
  protection in LPS-induced liver injury: protective
ERK1/2
  phosphorylation (activation) of ERK1/2: blocks phosphorylation; also recorded: suppressed activation of ERK1/2
MEK1/2
  phosphorylation (activation) of MEK1/2: blocks phosphorylation; also recorded: suppressed activation of MEK1/2

## COc1ccc2c(c1)c(CC(=O)O)c(C)n2C(=O)c1ccc(Cl)cc1 [indomethacin]
[1]
  block of TNF-inhibition by histamine: no effect

## CN1CCC(=C2c3ccccc3CC(=O)c3sccc32)CC1 [ketotifen]
Patients with IBS; patients with IBS
  IBS symptoms: decreased IBS symptoms
  pain threshold: increased pain threshold
Patients with IBS; rectal biopsy tissue
  number or activity of mast cells (histamine and tryptase release): no change
